In patent publication US20260224584A1 (priority 2023, published 2026) one finds IC50 data, which are given here for 30 compounds.

The term IC50 denotes the point on the concentration scale where inhibition reaches its midpoint.

The assay concerns Human WB (90%) CD69. As to the kind of experiment: Human WB (90%) CD69. It counts as cell-based. As to conditions: read-out: Human WB (90%) CD69 IC50 (nM); human whole blood (90%), CD69 readout.

Structures can show the parent of a compound that is named as a salt.

Take `CC(C)N1CCN(c2ccc(-c3cc(N4CCN(C(C)C)CC4)c4nc(-c5ccc(S(C)(=O)=O)cc5)n(C)c4c3)cc2)CC1` [Example 1, 4-(4-isopropylpiperazin-1-yl)-6-(4-(4-isopropylpiperazin-1-yl)phenyl)-1-methyl-2-(4-(methylsulfonyl)phenyl)-1H-benzo[d]imidazole]: the IC50 came out at 77 nM.

For the compound `CC(C)N1CCN(c2ccc(-c3cc(N(C)CCN(C)C)c4nc(-c5ccc(S(C)(=O)=O)cc5)n(C)c4c3)cc2)CC1` [Example 2, N1-(6-(4-(4-isopropylpiperazin-1-yl)phenyl)-1-methyl-2-(4-(methylsulfonyl)phenyl)-1H-benzo[d]imidazol-4-yl)-N^1,N^2,N^2-trimethylethane-1,2-diamine], the IC50 came to 199 nM.

In the case of `CC(C)N1CCN(c2ccc(-c3cc(NCCN4CCCC4)c4nc(-c5ccc(S(C)(=O)=O)cc5)n(C)c4c3)cc2)CC1` [Example 3, 6-(4-(4-isopropylpiperazin-1-yl)phenyl)-1-methyl-2-(4-(methylsulfonyl)phenyl)-N-(2-(pyrrolidin-1-yl)ethyl)-1H-benzo[d]imidazol-4-amine], the IC50 worked out at 87 nM.

For the compound `Cc1nc2c(NCCN3CCOCC3)cc(-c3ccc(N4CCN(C(C)C)CC4)cc3)cc2n1C` [Example 4, 6-(4-(4-isopropylpiperazin-1-yl)phenyl)-1,2-dimethyl-N-(2-morpholinoethyl)-1H-benzo[d]imidazol-4-amine], the IC50 stood at 106 nM.

Regarding `COc1ccc(-c2nc3c(NCCN4CCOCC4)cc(-c4ccc(N5CCN(C(C)C)CC5)cc4)cc3n2C)cc1OC` [Example 5, 2-(3,4-dimethoxyphenyl)-6-(4-(4-isopropylpiperazin-1-yl)phenyl)-1-methyl-N-(2-morpholinoethyl)-1H-benzo[d]imidazol-4-amine], the IC50 was found to be 94 nM.

As for `Cc1cc(C)nc(Nc2cc(-c3ccc(N4CCN(C(C)C)CC4)cc3)cc3c2nc(C)n3C)c1` [Example 6, N-(4,6-dimethylpyridin-2-yl)-6-(4-(4-isopropylpiperazin-1-yl)phenyl)-1,2-dimethyl-1H-benzo[d]imidazol-4-amine], the IC50 was 25 nM.

For `Cc1nc2c(NCCN3CCC(F)(F)CC3)cc(-c3ccc(N4CCN(C(C)C)CC4)cc3)cc2n1C` [Example 7, N-(2-(4,4-difluoropiperidin-1-yl)ethyl)-6-(4-(4-isopropylpiperazin-1-yl)phenyl)-1,2-dimethyl-1H-benzo[d]imidazol-4-amine], the IC50 was determined as 923 nM.

In the case of `COc1cccc(CCNc2cc(-c3ccc(N4CCN(C(C)C)CC4)cc3)cc3c2nc(C)n3C)c1OC` [Example 8, N-(2,3-dimethoxyphenethyl)-6-(4-(4-isopropylpiperazin-1-yl)phenyl)-1,2-dimethyl-1H-benzo[d]imidazol-4-amine, TFA], the IC50 amounted to 1560 nM.

Regarding `Cc1nc2c(NC3CCS(=O)(=O)CC3)cc(-c3ccc(N4CCN(C(C)C)CC4)cc3)cc2n1C` [Example 9, 4-((6-(4-(4-isopropylpiperazin-1-yl)phenyl)-1,2-dimethyl-1H-benzo[d]imidazol-4-yl)amino)tetrahydro-2H-thiopyran 1,1-dioxide], the IC50 is 1120 nM.

Regarding `Cc1nc2c(NCCc3ccc(S(C)(=O)=O)cc3)cc(-c3ccc(N4CCN(C(C)C)CC4)cc3)cc2n1C` [Example 10, 6-(4-(4-isopropylpiperazin-1-yl)phenyl)-1,2-dimethyl-N-(4-(methylsulfonyl)phenethyl)-1H-benzo[d]imidazol-4-amine], the IC50 was 813 nM.

Turning to `Cc1nc2c(NCc3ccc(S(C)(=O)=O)cc3)cc(-c3ccc(N4CCN(C(C)C)CC4)cc3)cc2n1C` [Example 11, 6-(4-(4-isopropylpiperazin-1-yl)phenyl)-1,2-dimethyl-N-(4-(methylsulfonyl)benzyl)-1H-benzo[d]imidazol-4-amine], the IC50 is 918 nM.

Consider `Cc1nc2c(NCc3cccc(S(C)(=O)=O)c3)cc(-c3ccc(N4CCN(C(C)C)CC4)cc3)cc2n1C` [Example 12, 6-(4-(4-isopropylpiperazin-1-yl)phenyl)-1,2-dimethyl-N-(3-(methylsulfonyl)benzyl)-1H-benzo[d]imidazol-4-amine], for which the IC50 came to 971 nM.

Regarding `Cc1nc2c(NC3CCN(S(C)(=O)=O)CC3)cc(-c3ccc(N4CCN(C(C)C)CC4)cc3)cc2n1C` [Example 13, 6-(4-(4-isopropylpiperazin-1-yl)phenyl)-1,2-dimethyl-N-(1-(methylsulfonyl)piperidin-4-yl)-1H-benzo[d]imidazol-4-amine], the IC50 was 1220 nM.

Regarding `Cc1nc2c(NCc3ccc(CN4CCOCC4)cc3)cc(-c3ccc(N4CCN(C(C)C)CC4)cc3)cc2n1C` [Example 14, 6-(4-(4-isopropylpiperazin-1-yl)phenyl)-1,2-dimethyl-N-(4-(morpholinomethyl)benzyl)-1H-benzo[d]imidazol-4-amine], the IC50 was 31 nM.

Consider `Cc1ccc(Nc2cc(-c3ccc(N4CCN(C(C)C)CC4)cc3)cc3c2nc(C)n3C)cn1` [Example 15, 6-(4-(4-isopropylpiperazin-1-yl)phenyl)-1,2-dimethyl-N-(6-methylpyridin-3-yl)-1H-benzo[d]imidazol-4-amine], for which the IC50 was 526 nM.

In the case of `Cc1nc2c(Nc3ccc(N4CCOCC4)cn3)cc(-c3ccc(N4CCN(C(C)C)CC4)cc3)cc2n1C` [Example 16, 6-(4-(4-isopropylpiperazin-1-yl)phenyl)-1,2-dimethyl-N-(5-morpholinopyridin-2-yl)-1H-benzo[d]imidazol-4-amine], the IC50 worked out at 207 nM.

Turning to `Cc1nc2c(Nc3ccc(N4CCOCC4)nn3)cc(-c3ccc(N4CCN(C(C)C)CC4)cc3)cc2n1C` [Example 17, 6-(4-(4-isopropylpiperazin-1-yl)phenyl)-1,2-dimethyl-N-(6-morpholinopyridazin-3-yl)-1H-benzo[d]imidazol-4-amine, TFA], the IC50 stood at 137 nM.

As for `Cc1nc2c(Nc3ccc(N4CCOCC4)nc3)cc(-c3ccc(N4CCN(C(C)C)CC4)cc3)cc2n1C` [Example 18, 6-(4-(4-isopropylpiperazin-1-yl)phenyl)-1,2-dimethyl-N-(6-morpholinopyridin-3-yl)-1H-benzo[d]imidazol-4-amine], the IC50 came out at 728 nM.

On to `Cc1cc(Nc2cc(-c3ccc(N4CCN(C(C)C)CC4)cc3)cc3c2nc(C)n3C)cnc1C` [Example 19, N-(5,6-dimethylpyridin-3-yl)-6-(4-(4-isopropylpiperazin-1-yl)phenyl)-1,2-dimethyl-1H-benzo[d]imidazol-4-amine], for which the IC50 was found to be 452 nM.

On to `Cc1nc2c(Nc3cnccn3)cc(-c3ccc(N4CCN(C(C)C)CC4)cc3)cc2n1C` [Example 20, 6-(4-(4-isopropylpiperazin-1-yl)phenyl)-1,2-dimethyl-N-(pyrazin-2-yl)-1H-benzo[d]imidazol-4-amine], for which the IC50 was determined as 1270 nM.

In the case of `Cc1nc2c(Nc3ncccn3)cc(-c3ccc(N4CCN(C(C)C)CC4)cc3)cc2n1C` [Example 21, 6-(4-(4-isopropylpiperazin-1-yl)phenyl)-1,2-dimethyl-N-(pyrimidin-2-yl)-1H-benzo[d]imidazol-4-amine], the IC50 was found to be 1640 nM.

As for `Cc1ccc(Nc2cc(-c3ccc(N4CCN(C(C)C)CC4)cc3)cc3c2nc(C)n3C)nc1` [Example 22, 6-(4-(4-isopropylpiperazin-1-yl)phenyl)-1,2-dimethyl-N-(5-methylpyridin-2-yl)-1H-benzo[d]imidazol-4-amine], the IC50 is 762 nM.

Take `COc1ccnc(Nc2cc(-c3ccc(N4CCN(C(C)C)CC4)cc3)cc3c2nc(C)n3C)c1` [Example 23, 6-(4-(4-isopropylpiperazin-1-yl)phenyl)-N-(4-methoxypyridin-2-yl)-1,2-dimethyl-1H-benzo[d]imidazol-4-amine, TFA]: the IC50 amounted to 370 nM.

As for `Cc1ccc(Nc2cc(-c3ccc(N4CCN(C(C)C)CC4)cc3)cc3c2nc(C)n3C)nn1` [Example 24, 6-(4-(4-isopropylpiperazin-1-yl)phenyl)-1,2-dimethyl-N-(6-methylpyridazin-3-yl)-1H-benzo[d]imidazol-4-amine], the half-inhibitory concentration (IC50) was 600 nM.

Turning to `CC(C)c1nc2c(NCCN3CCOCC3)cc(-c3ccc(N4CCN(C(C)C)CC4)cc3)cc2n1C` [Example 25, 2-isopropyl-6-(4-(4-isopropylpiperazin-1-yl)phenyl)-1-methyl-N-(2-morpholinoethyl)-1H-benzo[d]imidazol-4-amine, 2 TFA], the IC50 is 530 nM.

In the case of `Cc1cc(C)nc(Nc2cc(-c3ccc(N4CCN(C(C)C)CC4)cc3)cc3c2nc(C(C)C)n3C)c1` [Example 26, N-(4,6-dimethylpyridin-2-yl)-2-isopropyl-6-(4-(4-isopropylpiperazin-1-yl)phenyl)-1-methyl-1H-benzo[d]imidazol-4-amine], the IC50 is 578 nM.

For the compound `Cc1cc(C)nc(Nc2cc(-c3ccc(N4CCN(C(C)C)CC4)cc3)cc3c2nc(C2CCN(S(C)(=O)=O)CC2)n3C)c1` [Example 27, N-(4,6-dimethylpyridin-2-yl)-6-(4-(4-isopropylpiperazin-1-yl)phenyl)-1-methyl-2-(1-(methylsulfonyl)piperidin-4-yl)-1H-benzo[d]imidazol-4-amine], the IC50 amounted to 284 nM.

Take `CC(C)N1CCN(c2ccc(-c3cc(NCCN4CCN(S(C)(=O)=O)CC4)c4nc(-c5ccc(S(C)(=O)=O)cc5)n(C)c4c3)cc2)CC1` [Example 28, 6-(4-(4-isopropylpiperazin-1-yl)phenyl)-1-methyl-2-(4-(methylsulfonyl)phenyl)-N-(2-(4-(methylsulfonyl)piperazin-1-yl)ethyl)-1H-benzo[d]imidazol-4-amine, 2 TFA]: the IC50 amounted to 807 nM.

On to `Cc1cc(C)nc(Nc2cc(-c3ccc(N4CCN(C(C)C)CC4)cc3)cc3c2nc(-c2ccc(S(C)(=O)=O)cc2)n3C)c1` [Example 29, N-(4,6-dimethylpyridin-2-yl)-6-(4-(4-isopropylpiperazin-1-yl)phenyl)-1-methyl-2-(4-(methylsulfonyl)phenyl)-1H-benzo[d]imidazol-4-amine], for which the IC50 was found to be 340 nM.

In the case of `CC(C)N1CCN(c2ccc(-c3cc(NCCN4CCOCC4)c4nc(C5CCN(S(C)(=O)=O)CC5)n(C)c4c3)cc2)CC1` [Example 30, 6-(4-(4-isopropylpiperazin-1-yl)phenyl)-1-methyl-2-(1-(methylsulfonyl)piperidin-4-yl)-N-(2-morpholinoethyl)-1H-benzo[d]imidazol-4-amine], the IC50 came out at 374 nM.
